In patent publication US5766624A, “Liposomal defensins” (The Liposme Company, Inc., priority 1995, dated 1998):
Where no end group is shown, it is not given here.

Legend:
In vivo acute toxicity = assay: In vivo acute toxicity; parameters: species or system Balb/c mice; settings: for Number of Animals Dead: tail vein
Procedure: Mice were also injected with saline and with empty liposomes.

Aspergillus fumigatus = assay: Treatment of Aspergillus fumigatus infections in mice; assay type: in vivo, Balb/c mice; settings: 2 mg/kg, given six hours after 2×10^7 A. fumigatus spores; 15-day period
Excerpt: FIG. 14. Therapeutic Efficacy of Free and Liposomal Indolicidin Against Aspergillus Infections in Mice. […] The animals' survival was monitored over a period of fifteen days. Percent survival (vertical axis) is plotted against time in days (horizontal axis).
Male Balb/c mice were each injected with 2×10^7 Aspergillus fumigatus spores by injection in the tail vein. After six hours, the mice were randomly divided into five groups of 10 mice each. […] The animals' survival was monitored over a 15-day period.

[1] = Leakage of CAT1 probe from DSPC/Chol/DDAB liposomes (ESR)
Procedure: A solution of DSPC (51.6 mg), cholesterol (20.2 mg) and dimethyldioctadecyl ammonium bromide (DDAB; 8.23 mg) was dried in a round-bottom flask. The lipids were rehydrated with buffer (10 mM HEPES, 150 mM NaCl) containing 0.5 mM of the probe CAT1 so as to form a suspension of multilamellar liposomes. The suspension was heated at 65 deg. C. for 10 min and then washed twice in 10 ml of the HEPES buffer, with the final pellet comprising DSPC/Chol/DDAB multilamellar liposomes containing CAT1, being resuspended in HEPES buffer to a final volume of 2 ml. A standard phosphate assay (see Chen et al., Anal. Chem. 28:1956 (1956)) was performed to determine the amount of lipid remaining (34.12 mg).
Various amounts of this solution (see Table 2, below) were combined with an aliquot (100 μl) of the liposome suspension, the final volume of the samples being brought up to 0.2 ml with HEPES buffer. These samples were centrifuged, and aliquots of the supernatants were taken for ESR spectra determination (23 deg. C.) to measure probe leakage.

[2] = Right angle light scattering of aqueous indolicidin; assay type: physicochemical; settings: 10 mM HEPES, 150 mM NaCl, pH 7.5; light scattering 500 nm, 90 degrees
Procedure: FIG. 1. Right Angle Light Scattering of Aqueous Indolicidin. […] Samples were placed in fluorescence cuvettes and the scattering of light at 500 nm wavelengths (excitation wavelength) was measured in the fluorimeter at an angle of 90 degrees.
Samples were placed in fluorescence cuvettes and light scattering at 500 nm ([…] in the fluorimeter, at a 90 degree angle.

[3] = Leakage of CAT1 probe from DSPC/Chol liposomes (ESR); settings: for % Probe in Supernatant: CAT1, 23 deg. C
Procedure: A solution of DSPC (60 mg) and cholesterol (20 mg) was dried by rotary evaporation; the dried lipids were then rehydrated with 2 ml of buffer (10 mM HEPES, 150 mM NaCl), containing 0.5 mM of the probe CAT1 (4-trimethylammmonium-2,2,6,6-tetramethylpiperidine-1-oxyl-iodide) so as to form a suspension of multilamellar liposomes containing the probe. A suspension of these vesicles was then heated for 10 min. at 65 deg. C. The sample was washed four times with HEPES buffer and resuspended in buffer to a final volume of 2 ml. […] Various amounts of this solution (see Table 1, below) were combined with an aliquot (100 μl) of the liposome preparation, with buffer then being added to bring the final volume up to 0.2 ml. Samples were microfuged, and the supernatants transferred to ESR tubes. Spectra were taken at room temperature (23 deg. C.) to determine the concentration of the probe in the supernatant samples (see Perkins et al., Biochim. Biophys. Acta. 943:103 (1988)).
The data (see Table 1, below) indicates the percent of the probe found in the supernatant, and thereby, the percent leakage from the DSPC/Chol liposomes.

protein kinase C = settings: Charp et al., Biochem. Pharmacol. 37(5):951 (1988); cited from earlier work

## CC[C@H](C)[C@H](N)C(=O)N[C@@H](CC(C)C)C(=O)N1CCC[C@H]1C(=O)N[C@@H](Cc1c[nH]c2ccccc12)C(=O)N[C@@H](CCCCN)C(=O)N[C@@H](Cc1c[nH]c2ccccc12)C(=O)N1CCC[C@H]1C(=O)N[C@@H](Cc1c[nH]c2ccccc12)C(=O)N[C@@H](Cc1c[nH]c2ccccc12)C(=O)N1CCC[C@H]1C(=O)N[C@@H](Cc1c[nH]c2ccccc12)C(=O)N[C@@H](CCCNC(=N)N)C(=O)N[C@@H](CCCNC(=N)N)C(N)=O [indolicidin]
In vivo acute toxicity; free indolicidin dose 0.4 mg/kg
  Number of Animals Dead: 0/5
In vivo acute toxicity; free indolicidin dose 1.2 mg/kg
  Number of Animals Dead: 1/5
In vivo acute toxicity; free indolicidin dose 4.0 mg/kg
  Number of Animals Dead: 3/5
In vivo acute toxicity; free indolicidin dose 12.0 mg/kg
  Number of Animals Dead: 0/5
In vivo acute toxicity; male Balb/c mice, tail vein injection
  LD50: 3 mg/kg
Aspergillus fumigatus
  survival times of infected mice: slight increase in survival times
[1]; 0.48 mole % indolicidin (3.20 μl stock), CAT1, 23 deg. C
  % Probe in Supernatant: 8.00%
[1]; 0.93 mole % indolicidin (6.30 μl stock)
  % Probe in Supernatant: 8.00%
[1]; 1.84 mole % indolicidin (12.50 μl stock)
  % Probe in Supernatant: 9.78%
[1]; 3.61 mole % indolicidin (25.00 μl stock)
  % Probe in Supernatant: 10.67%
[1]; 6.99 mole % indolicidin (50.00 μl stock)
  % Probe in Supernatant: 9.78%
[1]; 10.09 mole % indolicidin (75.00 μl stock), corrected for any liposomes in the supernatant
  % Probe in Supernatant: 0%
[1]; 13.04 mole % indolicidin (100.00 μl stock), corrected for any liposomes in the supernatant
  % Probe in Supernatant: 0%
[2]
  concentration at which indolicidin self-associates in solution: ≥ 30000 ng/mL
[3]; 0.42 mole % indolicidin
  % Leakage of Probe: 1.75%
[3]; 0.42 mole % indolicidin (3.20 μl stock)
  % Probe in Supernatant: 6.14%
[3]; 0.82 mole % indolicidin
  % Leakage of Probe: 1.75%
[3]; 0.82 mole % indolicidin (6.30 μl stock)
  % Probe in Supernatant: 6.14%
[3]; 1.61 mole % indolicidin
  % Leakage of Probe: 0.87%
[3]; 1.61 mole % indolicidin (12.50 μl stock)
  % Probe in Supernatant: 5.26%
[3]; 3.16 mole % indolicidin
  % Leakage of Probe: 1.75%
[3]; 3.16 mole % indolicidin (25.00 μl stock)
  % Probe in Supernatant: 6.14%
[3]; 6.16 mole % indolicidin
  % Leakage of Probe: 2.63%
[3]; 6.16 mole % indolicidin (50.00 μl stock)
  % Probe in Supernatant: 7.02%
[3]; 8.93 mole % indolicidin
  % Leakage of Probe: 1.75%
[3]; 8.93 mole % indolicidin (75.00 μl stock)
  % Probe in Supernatant: 6.14%
[3]; DSPC/Chol liposomes, 0.42-8.93 mole % indolicidin
  effect of increasing indolicidin concentration on probe leakage: did not significantly increase probe leakage

## HNP-1: human neutrophil protein 1, a prototypical mammalian defensin
Protein kinase C
  protein kinase C activity: inhibited

## HNP-2: human neutrophil protein 2, a prototypical mammalian defensin (CYCRIPACIAGERRYGTCIYQGRLWAFCC; ends and bridges not checked; cysteine pairing not given here; UniProt P59665 66-94, looked up)
Protein kinase C
  protein kinase C activity: inhibited

## HNP-3: human neutrophil protein 3, a prototypical mammalian defensin
Protein kinase C
  protein kinase C activity: inhibited
